# Test results taken from the METLIN SMRT retention time set (Domingo-Almenara et al. 2019).
# Assay: gradient 5% acetonitrile 3 min, to 50% in 2 min, to 85% in 15 min, held 3 min, 100 µL/min
# Conditions: column: Zorbax Extend-C18 2.1 x 50 mm; eluents: water / acetonitrile, 0.1% formic acid
# Procedure, shortened: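 A Zorbax Extend-C18 column (2.1 × 50 mm, 1.8 μm) run at 100 μL/min with water and acetonitrile, both containing 0.1% formic acid, separated mixtures of ~100 pure standards. The HPLC was coupled to a quadrupole time-of-flight mass spectrometer operated in positive and negative ionization mode, with dead and dwell volumes of 40 μL and 900 μL. Each retention time was taken from a computationally picked adduct peak that was then manually inspected.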
row,RP-LC retention time [s],Structure (SMILES)
1,671,Cc1cc(OCC(=O)NCc2ccc3c(c2)OCO3)nc(N2CCCC(C)C2)n1 (configuration not stated)
2,856,CCc1cccc(N2C(=O)CN(S(=O)(=O)CC)CC2(C)C(=O)NCc2ccccc2)c1 (configuration not stated)
3,1260,O=C(Nc1nc(-c2ccc(Cl)c(Cl)c2)cs1)c1ccc(F)c(F)c1
4,788,O=C(CSc1ccc(-c2ccco2)nn1)Nc1ccc(F)cc1F
5,862,CC(C)(CSc1nnnn1-c1ccccc1)NS(=O)(=O)c1ccccc1
6,930,Cc1cc(C)n(Cc2nc(-c3ccc(NC(=O)Cc4cccc(F)c4)cc3)oc2C)n1
7,1010,Cc1ccc(C)c(CNC(=O)CCc2conc2-c2ccc(F)cc2)c1
8,960,CCCN1C(=O)c2cc(S(=O)(=O)NC(C)C)ccc2Oc2cccnc21
9,1410,CCCN(C(=O)c1ccccc1F)c1nc(-c2ccc(C)cc2)cs1
10,650,O=C(NC1CCN(Cc2ccccc2)CC1)C1CCCN(C(=O)c2cccc(Cl)c2)C1 (configuration not stated)
11,793,O=C(O)c1ccc2c(c1)n(Cc1ccc(F)cc1)c(=O)c1ccnn12
12,1060,Cc1oc2ccn(Cc3cccc(F)c3)c(=O)c2c1C(=O)NCc1ccccc1F
13,796,COc1ccc(OC)c(NC(=O)Cn2nc(N3CCOCC3)c3ccccc3c2=O)c1
14,585,CN1CCN(CCNC(=O)c2cc(-c3cccnc3)nc3ccc(Br)cc23)CC1
15,1050,CCOc1ccc(NC(=O)c2cccc3ccccc23)c([N+](=O)[O-])c1
16,760,Cc1ccc(Cn2cc(-c3ccncc3)cc2C(=O)Nc2ccc3c(c2)OCO3)cc1
17,761,CC(CCc1ccccc1)NC(=O)Cc1nnc(-c2ccc3ncccc3c2)o1 (configuration not stated)
18,761,CCN1C(=O)c2cccnc2Sc2cc(CNC(=O)Cc3ccc(F)cc3)ccc21
19,765,Cc1ccc(OCC(=O)Nc2nnc(C3CC(=O)N(c4ccccc4)C3)o2)cc1 (configuration not stated)
20,854,O=C(COc1ccccc1)Nc1nonc1NC(=O)COc1ccccc1
21,682,Cc1ccn2c(NC(=O)c3cccc(Cl)c3)c(-c3ccccc3)nc2c1
22,804,COc1ccc(C)cc1NC(=O)Cn1nc2cc(-c3ccccn3)nc(C)n2c1=O
23,764,CCSc1ccccc1C(=O)Nc1nnc(Cc2cccs2)o1
24,841,O=C(NCCc1ccco1)C1CCN(Cc2cc3ccccc3n2Cc2ccccc2Cl)CC1
25,885,O=C(Nc1nnc(-c2ccc(C(F)(F)F)cc2)o1)c1cc2ccccc2o1
26,830,CC(C)C(=O)N1CCc2cc(-c3ccc(C(=O)N4CCN(C(=O)c5ccco5)CC4)cc3)ccc21
27,769,O=C(NCc1ccccc1Cl)C1CCN(c2cnc3nccnc3c2)CC1
28,905,COC(=O)c1cccc(Nc2c(-c3ccc(Cl)cc3)nc3cnccn23)c1
29,574,COc1ccc(-c2nc(NCc3cccnc3)c3ccccc3n2)cc1
30,717,CCC(=O)Nc1ccc(-n2cnc(C(=O)N3CCN(c4cccc(OC)c4)CC3)c2)nc1

# The remaining lines, values behind:
row,Structure (SMILES),RP-LC retention time [s]
1,CCN(CC)CCNC(=O)c1cc(Br)c(N)cc1OC,645
2,COc1ccc(N2CC(c3noc(-c4ccc(C)c(C)c4)n3)CC2=O)cc1OC (configuration not stated),983
3,CCCCN1C(=O)C(NC(=O)c2ccccc2OC)(C(F)(F)F)C(C(C)=O)=C1C (configuration not stated),976
4,CCOC(=O)C1=C(CN2CCC(c3ccccc3)C2)NC(=O)NC1c1cccs1 (configuration not stated),681
5,COc1cccc(-c2nc3cnccn3c2NCCC(=O)NC2CCN(C)CC2)c1,554
6,Cc1oc2cc3oc(=O)c(CCC(=O)N4CCN(c5ccccn5)CC4)c(C)c3cc2c1C,682
7,O=P(OC1=CCCCC1)(c1ccccc1)c1ccccc1,1030
8,COc1ccc(-c2noc(NCC3CCCO3)n2)cc1 (configuration not stated),765
9,COc1ccc(-n2c(N)cc(=O)nc2SCC(=O)Nc2cc(C)on2)cc1,588
10,CC(C)c1cc(N2CCN(C(=O)Cc3cccs3)CC2)nc2nncn12,613
11,O=C(Nc1ccc(F)cc1)C1CC(=O)N(c2ccc3c(c2)CCN3C(=O)C2CC2)C1 (configuration not stated),775
12,CC(OC(=O)Nc1cccc(Cl)c1)C(=O)O (configuration not stated),809
13,Cc1cc(C)n(CC(=O)N2CCCCCC2c2nnc(C)o2)n1 (configuration not stated),631
14,CC1CCN(C(=O)c2nnc(-c3ccc(S(=O)(=O)N4CCC(C)CC4)cc3)o2)CC1,1120
15,O=S(=O)(Cc1cccc(Cl)c1)N1CCc2nc[nH]c2C1,616
16,CC(C)(C)n1nnnc1C1CC2(CCOCC2)C(=O)N1CCc1c[nH]c2ccccc12 (configuration not stated),770
17,Cc1ccc(NC(=O)Cn2nc3cc(C)nc(N4CCCC4)n3c2=O)c(C)c1,791
18,Cn1cc(C(=O)NCc2ccc(F)cc2)c(S(=O)(=O)N2CCSCC2)n1,845
19,Cc1ccccc1S(=O)(=O)N1[C@H]2CC[C@@H]1c1cnc(-c3ccccc3)nc1C2,1140

row,Structure (SMILES),RP-LC retention time [s]
1,Cc1cccc(NC(=O)Cn2nc3nc(N4CCCC(C)C4)ccn3c2=O)c1 (configuration not stated),791
2,CCCNC(=O)N1CCCC1c1nc(-c2cccc(C(F)(F)F)c2)no1 (configuration not stated),963
3,CNC(=O)c1csc(NC(=O)Cc2ccc(OC)cc2)n1,634
4,Cc1ccc(CS(=O)(=O)N2CCc3nc(-c4ccc(F)cc4)ncc3C2)cc1,1110
5,CN(CC1CCOCC1)C(=O)Cc1ccc(F)cc1,687
6,CC(Oc1cccc(Cl)c1)C(=O)NCC1(C)CCOCC1 (configuration not stated),816
7,CC(C)c1ccc(S(=O)(=O)N2CCC(C(=O)NCc3csc(-c4cccs4)n3)CC2)cc1,1030
8,CC(=O)N1CCc2cc(S(=O)(=O)C(C)CC(=O)N3CCN(c4ccccc4)CC3)ccc21 (configuration not stated),787
9,Cc1cccc(NC(=O)N2CCN(c3cc(N4CCCCC4)ncn3)CC2)c1C,596
10,O=C(NC1CC(=O)N(C2CC2)C1)c1cnc2ccccc2n1 (configuration not stated),594
11,Cc1cc(NC2CCCCC2)nc(-n2nc(C)cc2C)n1,850
12,CS(=O)(=O)c1ccc(CC(=O)N2CC(Cc3nncn3CC3CC3)C2)cc1,592
13,COc1cccc(CNC(=O)C2(C)CCCN(C(=O)Nc3cc(OC)ccc3OC)C2)c1 (configuration not stated),844
14,Cc1ccc(C(=O)N2CCC3(CC2)NC(=O)c2cc(C)ccc2N3C)cc1,805
15,CN(C)CCC1c2ccc(Cl)cc2CCc2cccnc21 (configuration not stated),666
16,O=C(c1ccc2cc[nH]c2c1)N1CCN(C(=O)c2cc(-c3ccncc3)n[nH]2)CC1,594
17,CCCCN(C)C(=O)C1CCN(S(=O)(=O)c2ccc3c(c2)CCCC(=O)N3)CC1,719
18,Cc1cc(C)cc(NC(=O)COc2cccc3c(=O)n(C)ccc23)c1,844
